In US20260028326A1, “COMPOUND BASED ON ISOINDOLINE-SUBSTITUTED GLUTARIMIDE BACKBONE AND USE THEREOF” (GLUETACS THERAPEUTICS (SHANGHAI) CO., LTD., priority 2022, published 2026) one finds IC50 data, which are given here for 26 molecules.

human Cereblon WT GST-tagged protein, sequence (Q96SW2 whole entry): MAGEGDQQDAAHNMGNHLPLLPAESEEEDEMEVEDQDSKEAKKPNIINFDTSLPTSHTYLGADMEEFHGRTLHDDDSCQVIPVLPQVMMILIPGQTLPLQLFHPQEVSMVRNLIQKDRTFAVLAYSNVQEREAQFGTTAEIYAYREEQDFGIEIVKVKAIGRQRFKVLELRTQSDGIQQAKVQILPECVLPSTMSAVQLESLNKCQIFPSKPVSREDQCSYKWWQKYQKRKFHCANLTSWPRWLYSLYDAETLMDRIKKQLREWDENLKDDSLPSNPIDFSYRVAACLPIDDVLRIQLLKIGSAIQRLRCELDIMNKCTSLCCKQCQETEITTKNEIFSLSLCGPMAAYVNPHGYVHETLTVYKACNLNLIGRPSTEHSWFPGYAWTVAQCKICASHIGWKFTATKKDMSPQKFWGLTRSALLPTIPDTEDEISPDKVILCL

In this test the target is human Cereblon WT GST-tagged protein (Homo sapiens (Human), UniProt Q96SW2). In words: CRBN-binding affinity, HTRF (CEREBLON BINDING kit). A digest of the protocol:
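GST-tagged human WT Cereblon incubated with compound, then Thalidomide-Re tracer and anti-GST Eu antibody added. Displacement read by HTRF, reported as CRBN binding inhibition rate against blank control wells without protein.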
One may read the IC50 as the concentration needed to halve the response being measured. Higher therefore signals lower potency. Regarding `CC1(C)CCC(CN2C3CC2CN(Cc2cc(F)c4c(c2)CN(C2CCC(=O)NC2=O)C4=O)C3)=C(c2ccc(Cl)cc2)C1` (centres unmarked) [GT-05531, 3-(5-((6-((4′-chloro-5,5-dimethyl-3,4,5,6-tetrahydro-[1,1′-biphenyl]-2-yl)methyl)-3,6-diazabicyclo[3.1.1]heptan-3-yl)methyl)-7-fluoro-1-oxoisoindolin-2-yl)piperidine-2,6-dione], the IC50 was 800 nM. With `CC1(C)CCC(CN2C3CCC2CN(Cc2ccc4c(c2F)CN(C2CCC(=O)NC2=O)C4=O)C3)=C(c2ccc(Cl)cc2)C1` (centres unmarked) [GT-05534, 3-(5-((8-((4′-chloro-5,5-dimethyl-3,4,5,6-tetrahydro-[1,1′-biphenyl]-2-yl)methyl)-3,8-diazabicyclo[3.2.1]octan-3-yl)methyl)-4-fluoro-1-oxoisoindolin-2-yl)piperidine-2,6-dione], the IC50 was determined as 1170 nM. To `CC1(C)CCC(CN2C3CCC2CN(Cc2cc4c(cc2F)C(=O)N(C2CCC(=O)NC2=O)C4)C3)=C(c2ccc(Cl)cc2)C1` (centres unmarked) [GT-05535, 3-(5-((8-((4′-chloro-5,5-dimethyl-3,4,5,6-tetrahydro-[1,1′-biphenyl]-2-yl)methyl)-3,8-diazabicyclo[3.2.1]octan-3-yl)methyl)-6-fluoro-1-oxoisoindolin-2-yl)piperidine-2,6-dione] belongs 1790 nM; to `CC1(C)CCC(CN2C3CCC2CN(Cc2cc(F)c4c(c2)CN(C2CCC(=O)NC2=O)C4=O)C3)=C(c2ccc(Cl)cc2)C1` (centres unmarked) [GT-05536, 3-(5-((8-((4′-chloro-5,5-dimethyl-3,4,5,6-tetrahydro-[1,1′-biphenyl]-2-yl)methyl)-3,8-diazabicyclo[3.2.1]octan-3-yl)methyl)-7-fluoro-1-oxoisoindolin-2-yl)piperidine-2,6-dione], 1050 nM; to `CC1(C)CCC(C(=O)N2CC3CC(C2)N3C(=O)c2ccc3c(c2)CN(C2CCC(=O)NC2=O)C3=O)=C(c2ccc(Cl)cc2)C1` (centres unmarked) [GT-05538, 3-(5-(3-(4′-chloro-5,5-dimethyl-3,4,5,6-tetrahydro-[1,1′-biphenyl]-2-carbonyl)-3,6-diazabicyclo[3.1.1]heptane-6-carbonyl)-1-oxoisoindolin-2-yl)piperidine-2,6-dione], 1020 nM. Next, `CC1(C)CCC(C(=O)N2CC3CCC(C2)N3C(=O)c2ccc3c(c2)CN(C2CCC(=O)NC2=O)C3=O)=C(c2ccc(Cl)cc2)C1` (centres unmarked) [GT-05539, 3-(5-(3-(4′-chloro-5,5-dimethyl-3,4,5,6-tetrahydro-[1,1′-biphenyl]-2-carbonyl)-3,8-diazabicyclo[3.2.1]octane-8-carbonyl)-1-oxoisoindolin-2-yl)piperidine-2,6-dione]: 1280 nM; `CC1(C)CCC(C(=O)N2C3CCC2CN(C(=O)c2ccc4c(c2)CN(C2CCC(=O)NC2=O)C4=O)C3)=C(c2ccc(Cl)cc2)C1` (centres unmarked) [GT-05540, 3-(5-(8-(4′-chloro-5,5-dimethyl-3,4,5,6-tetrahydro-[1,1′-biphenyl]-2-carbonyl)-3,8-diazabicyclo[3.2.1]octane-3-carbonyl)-1-oxoisoindolin-2-yl)piperidine-2,6-dione]: 960 nM. To `CC1(C)CCC(CN2CC3CC2CN3C(=O)c2ccc3c(c2)CN(C2CCC(=O)NC2=O)C3=O)=C(c2ccc(Cl)cc2)C1` (centres unmarked) [GT-05541, 3-(5-(5-((4′-chloro-5,5-dimethyl-3,4,5,6-tetrahydro-[1,1′-biphenyl]-2-yl)methyl)-2,5-diazabicyclo[2.2.1]heptane-2-carbonyl)-1-oxoisoindolin-2-yl)piperidine-2,6-dione] belongs 600 nM; to `O=C1CCC(N2Cc3cc(CN4CC5CCC4CN5C(=O)c4ccccc4-c4ccc(Cl)cc4)ccc3C2=O)C(=O)N1` (centres unmarked) [GT-05543, 3-(5-((5-(4′-chloro-[1,1′-biphenyl]-2-carbonyl)-2,5-diazabicyclo[2.2.2]octan-2-yl)methyl)-1-oxoisoindolin-2-yl)piperidine-2,6-dione], 450 nM; to `O=C1CCC(N2Cc3c(CN4CCN(Cc5ccccc5-c5ccc(F)cc5)CC4)cccc3C2=O)C(=O)N1` (centres unmarked) [GT-05605, 3-(4-((4-((4′-fluoro-[1,1′-biphenyl]-2-yl)methyl)piperazin-1-yl)methyl)-1-oxoisoindolin-2-yl)piperidine-2,6-dione], 1050 nM.

Molecule `O=C1CCC(N2Cc3ccc(CN4CCN(Cc5ccccc5-c5ccc(F)cc5)CC4)cc3C2=O)C(=O)N1` (centres unmarked) [GT-05606, 3-(6-((4-((4′-fluoro-[1,1′-biphenyl]-2-yl)methyl)piperazin-1-yl)methyl)-1-oxoisoindolin-2-yl)piperidine-2,6-dione] returned an IC50 of 1180 nM. Next, `O=C1CCC(N2Cc3cc(CN4C5CC4CN(Cc4ccccc4-c4ccc(Cl)cc4)C5)c(F)cc3C2=O)C(=O)N1` (centres unmarked) [GT-05609, 3-(5-((3-((4′-chloro-[1,1′-biphenyl]-2-yl)methyl)-3,6-diazabicyclo[3.1.1]heptan-6-yl)methyl)-6-fluoro-1-oxoisoindolin-2-yl)piperidine-2,6-dione]: 540 nM.

In turn, `O=C1CCC(N2Cc3cc(CN4C5CC4CN(Cc4ccccc4-c4ccc(Cl)cc4)C5)cc(F)c3C2=O)C(=O)N1` (centres unmarked) [GT-05610, 3-(5-((3-((4′-chloro-[1,1′-biphenyl]-2-yl)methyl)-3,6-diazabicyclo[3.1.1]heptan-6-yl)methyl)-7-fluoro-1-oxoisoindolin-2-yl)piperidine-2,6-dione] yielded an IC50 of 640 nM. Turning to `O=C1CCC(N2Cc3cc(CN4CCCN(Cc5ccccc5-c5ccc(Cl)cc5)CC4)ccc3C2=O)C(=O)N1` (centres unmarked) [GT-05611, 3-(5-((4-((4′-chloro-[1,1′-biphenyl]-2-yl)methyl)-1,4-diazepan-1-yl)methyl)-1-oxoisoindolin-2-yl)piperidine-2,6-dione], the IC50 was determined as 630 nM.

With `CC1(C)CCC(CN2CCN(C(=O)c3ccc4c(c3)CN(C3CCC(=O)NC3=O)C4=O)CC2)=C(c2ccc(F)cc2)C1` (centres unmarked) [GT-05614, 3-(5-(4-((4′-fluoro-5,5-dimethyl-3,4,5,6-tetrahydro-[1,1′-biphenyl]-2-yl)methyl)piperazine-1-carbonyl)-1-oxoisoindolin-2-yl)piperidine-2,6-dione], the IC50 came to 1410 nM.

Regarding `O=C1CCC(N2Cc3cc(C(=O)N4CCCN(Cc5ccccc5-c5ccc(Cl)cc5)CC4)ccc3C2=O)C(=O)N1` (centres unmarked) [GT-05616, 3-(5-(4-((4′-chloro-[1,1′-biphenyl]-2-yl)methyl)-1,4-diazepane-1-carbonyl)-1-oxoisoindolin-2-yl)piperidine-2,6-dione], the IC50 amounted to 900 nM. Next, `O=C1CCC(N2Cc3cc(CN4CC5CCC(C4)N5Cc4ccccc4-c4ccc(Cl)cc4)ccc3C2=O)C(=O)N1` (centres unmarked) [GT-05618, 3-(5-((8-((4′-chloro-[1,1′-biphenyl]-2-yl)methyl)-3,8-diazabicyclo[3.2.1]octan-3-yl)methyl)-1-oxoisoindolin-2-yl)piperidine-2,6-dione]: 580 nM; `O=C1CCC(N2Cc3cc(CN4CC5CCC4CN5Cc4ccccc4-c4ccc(Cl)cc4)ccc3C2=O)C(=O)N1` (centres unmarked) [GT-05619, 3-(5-((5-((4′-chloro-[1,1′-biphenyl]-2-yl)methyl)-2,5-diazabicyclo[2.2.2]octan-2-yl)methyl)-1-oxoisoindolin-2-yl)piperidine-2,6-dione]: 590 nM; `O=C1CCC(N2C(=O)c3ccc(C(=O)N4CCN(Cc5cccc(-c6ccc(Cl)cc6)c5)CC4)cc3C2=O)C(=O)N1` (centres unmarked) [GT-05631, 5-(4-((4′-chloro-[1,1′-biphenyl]-3-yl)methyl)piperazine-1-carbonyl)-2-(2,6-dioxopiperidin-3-yl)isoindoline-1,3-dione]: 1750 nM. To `O=C1CCC(N2Cc3cc(CN4CCN(C(=O)c5cnc(-c6ccccc6)cn5)CC4)ccc3C2=O)C(=O)N1` (centres unmarked) [GT-05635, 3-(1-oxo-5-((4-(5-phenylpyrazine-2-carbonyl)piperazin-1-yl)methyl)isoindolin-2-yl)piperidine-2,6-dione] belongs 1000 nM; to `O=C1CCC(N2Cc3cc(C(=O)N4CC5(CN(Cc6ccccc6-c6ccc(Cl)cc6)C5)C4)ccc3C2=O)C(=O)N1` (centres unmarked) [GT-05637, 3-(5-(6-((4′-chloro-[1,1′-biphenyl]-2-yl)methyl)-2,6-diazaspiro[3.3]heptane-2-carbonyl)-1-oxoisoindolin-2-yl)piperidine-2,6-dione], 1070 nM. Next, `O=C1CCC(N2Cc3cc(C(=O)N4C5CCC4CN(Cc4ccccc4-c4ccc(Cl)cc4)C5)ccc3C2=O)C(=O)N1` (centres unmarked) [GT-05638, 3-(5-(3-((4′-chloro-[1,1′-biphenyl]-2-yl)methyl)-3,8-diazabicyclo[3.2.1]octane-8-carbonyl)-1-oxoisoindolin-2-yl)piperidine-2,6-dione]: 1210 nM; `O=C1CCC(N2Cc3cc(C(=O)N4CC5CC4CN5Cc4ccccc4-c4ccc(Cl)cc4)ccc3C2=O)C(=O)N1` (centres unmarked) [GT-05639, 3-(5-(5-((4′-chloro-[1,1′-biphenyl]-2-yl)methyl)-2,5-diazabicyclo[2.2.1]heptane-2-carbonyl)-1-oxoisoindolin-2-yl)piperidine-2,6-dione]: 780 nM. The molecule `O=C1CCC(N2Cc3cc(C(=O)N4CC5(CCN(Cc6ccccc6-c6ccc(Cl)cc6)CC5)C4)ccc3C2=O)C(=O)N1` (centres unmarked) [GT-05641, 3-(5-(7-((4′-chloro-[1,1′-biphenyl]-2-yl)methyl)-2,7-diazaspiro[3.5]nonane-2-carbonyl)-1-oxoisoindolin-2-yl)piperidine-2,6-dione] registered an IC50 of 1480 nM. `O=C1CCC(N2Cc3cc(C(=O)N4C5CC4CN(Cc4ccccc4-c4ccc(Cl)cc4)C5)ccc3C2=O)C(=O)N1` (centres unmarked) [GT-05643, 3-(5-(3-((4′-chloro-[1,1′-biphenyl]-2-yl)methyl)-3,6-diazabicyclo[3.1.1]heptane-6-carbonyl)-1-oxoisoindolin-2-yl)piperidine-2,6-dione] returned a 50% inhibitory concentration (IC50) of 590 nM.

`O=C1CCC(N2Cc3cc(CN4CC5CN(C(=O)c6ccccc6-c6ccc(Cl)cc6)CC5C4)ccc3C2=O)C(=O)N1` (centres unmarked) [GT-05645, 3-(5-((5-(4′-chloro-[1,1′-biphenyl]-2-carbonyl)hexahydropyrrolo[3,4-c]pyrrol-2(1H)-yl)methyl)-1-oxoisoindolin-2-yl)piperidine-2,6-dione] displayed a concentration for half-maximal inhibition (IC50) of 700 nM.
